Experimental data: the NIST ThermoML archive (doi:10.1016/j.fluid.2016.04.012)
± gives the expanded uncertainty stated by the source.

Details: Liquid, Closed cell (Static) method

Row | SMILES | vapor or sublimation pressure (337.85 K) [kPa] | vapor or sublimation pressure (338.65 K) [kPa]
1 | CO [methanol] | 101.3 ± 1.1 | 
2 | C1CCOC1 [tetrahydrofuran] |  | 101.3 ± 1.1
